Laboratory results published in patent US10837957B2, “In vitro model for pathological or physiologic conditions” (HemoShear, LLC, priority 2012, dated 2020).
One block for each compound: values may come before it.

Experiments:
cytochrome p450 1A/1B = assay: Cytochrome p450 activity assay (P450-GLO) in hepatocytes, induction
cytochrome p450 3A = assay: as above; format: cell-based, rat; conditions: controlled hemodynamics 0.6 dynes/cm^2, dexamethasone 02.5 μM, 48 hours, day 7; DMSO 11.64
primary rat hepatocytes = assay: Toxicity to hepatocytes cultured under controlled flow; conditions: 50 μM dexamethasone
hepatocytes [1] = assay: In vitro fatty liver model: lipid accumulation (Nile red, Oil Red O, total triglycerides); format: cell-based, rat; conditions: 1.5 μM pioglitazone, high insulin/glucose media
Experimental: Samples were then blocked in 5% goat serum, 0.2% blotting grade non-fat dry milk blocker, and 1% BSA in PBS for 45 minutes. The samples were then washed thrice in 0.1% BSA in PBS and incubated with 1:5000 dilution of Nile red (1 mM stock), 1:1000 DRAQS (a fluorescent DNA dye; Cell Signalling), 1:500 ALEXA FLUOR 488 conjugated phalloidin (Life Technologies), and 1% BSA in PBS for thirty minutes and protected from light. The samples were washed in 0.1% BSA in PBS thrice for five minutes each and mounted on glass cover slips using PROLONG GOLD antifade mounting media (an antifade reagent; Invitrogen). The samples were imaged on a Nikon C1+ Confocal System microscope. Oil Red O Assay: Accumulation of intracellular lipids within hepatocytes was assessed by adapting and modifying a commercially available Steatosis Colorimetric Assay Kit (Cayman Chemical). At the end of the culture period, 2 cm^2 sized porous membrane segments containing the hepatocytes from devices under healthy and steatotic conditions were washed with PBS and fixed in 4% paraformaldehyde for 30 minutes. […] The solution was then transferred to clear 96-well plates and absorbance was read at 490-520 nm in a spectrophotometer. Measurement of Total Triglycerides: Triglyceride content was assessed using a commercially available colorimetric assay kit (Cayman Triglyceride Colorimetric Assay Kit, Cat #10010303). […]

hepatocytes [2] = assay: In vitro fatty liver model: RT-PCR of metabolic and lipid pathway genes; format: cell-based, rat; conditions: 1.5 μM pioglitazone, high insulin/glucose disease conditions
[3] = test system: endothelial cells and smooth muscle cells; assay: Aldosterone in hemodynamic environment: gene array analysis; format: cell-based; conditions: aldosterone 1 mM vs vehicle; healthy and atheroprone
Experimental: Aldosterone at a concentration of 1 mM or a vehicle control (VEH) was added to the upper volume and RNA was collected for gene array analysis.

[4] = test system: endothelial cells and smooth muscle cells; assay: ANG2 in hemodynamic environment: gene array analysis; format: cell-based; conditions: ANG2 10 nM (10.46 ng/ml) vs DMSO vehicle; healthy and atheroprone
Experimental: ANG2 at a concentration of 10 nM (10.46 ng/ml) or a DMSO vehicle control (VEH) was added to the upper volume and RNA was collected for gene array analysis.

[5] = test system: endothelial cell/smooth muscle cell co-cultures; assay: HDL in hemodynamic environment; format: cell-based; conditions: HDL 45 μg/ml or 90 μg/ml, hemodynamic shear stress
Experimental: An additional component of plasma cholesterol distinct from nLDL or oxLDL is HDL. […] HDL was then added to the upper volume at a concentration of 45-1,000 μg/ml. This broad range reflects the broad range of HDL concentrations that can exist within human patients. HDL concentrations in individuals at risk for vascular disease are generally less than about 300 μg/ml, while HDL concentrations in healthy individuals range from greater than about 300 μg/ml up to about 2,000 μg/ml in healthy exercising patients.
In additional experiments, endothelial cell/smooth muscle cell co-cultures plated as described above were preconditioned for 16 hours with hemodynamic shear stress. From hours 16-24 the cells were additionally primed with 0.05 ng/ml TNFα and 50 μg/ml of oxLDL (compared to a vehicle control containing 50 μg/ml nLDL) in the upper volume. At 24 hours, 45 μg/ml or 90 μg/ml HDL was added to the media in the upper volume and hemodynamic shear stress was continued for the next 24 hours (hours 24-48).

[6] = test system: endothelial cells and smooth muscle cells; assay: oxLDL in hemodynamic environment: gene array, gene, protein and cytokine expression in co-culture; format: cell-based; conditions: for number of genes regulated as compared to nLDL: atheroprone, 50 μg/ml oxLDL vs 50 μg/ml nLDL
Experimental: Following 16-24 hours of shear stress preconditioning with atheroprotective or atheroprone hemodynamic forces, oxLDL was added to upper volume (containing the endothelial cells) at a concentration of 10-50 μg/ml (FIG. 5). In devices not receiving oxLDL, nLDL was added to the upper volume at the same concentration and used as a vehicle control. This concentration of oxLDL is similar to plasma concentrations of oxLDL observed in patients with cardiovascular disease. Shear stress application was continued for an additional 24 hours in the presence of oxLDL.
(§1) Five different donor pairs were used to analyze the oxLDL (50 μg/ml) response compared to nLDL (50 μg/ml) within the atheroprone hemodynamic environment in endothelial cells and smooth muscle cells. […] Significant genes were considered using an FDR of 0.01. Gene expression results are reported as the relative expression of the gene as compared to the expression of β-2 microglobulin (B2M). Protein expression results are reported as the relative expression of the protein as compared to the expression of actin. Activity of NFκB was assessed using an adenovirus NFκB-luciferase (Ad-NFKB-luc) reporter infected in ECs and SMCs.

endothelial cells [7] = assay: oxLDL and TNFα in hemodynamic environment: RT-PCR gene expression; format: cell-based; conditions: atheroprone
Experimental: To emulate more inflammatory stages of atherosclerosis, it is desirable to combine multiple circulating factors to better emulate the complexity found within human blood vessels. […] The media in the upper volume was then exchanged for media containing 0.05 ng/ml TNFα and 50 μg/ml of oxLDL. Media containing only 50 μg/ml of nLDL was used as a control.
Following 24 hours of shear stress preconditioning with atheroprotective or atheroprone hemodynamic forces, 50 μg/ml of oxLDL and 0.05 ng/ml of TNFα were added to upper volume (containing the endothelial cells). This concentration of TNFα is similar to plasma concentrations of TNFα observed in patients with cardiovascular disease. In devices not receiving oxLDL, nLDL was added to the upper volume at the same concentration and used as a vehicle control. Shear stress application was continued for an additional 24 hours in the presence of TNF-a and oxLDL (see FIG. 5). Gene expression analysis was performed using RT-PCR.

NFκB = assay: Adenovirus NFκB-luciferase reporter in ECs and SMCs; format: cell-based
Experimental: as §1

endothelial cells [8] = assay: Static monoculture thrombosis assay (A488-fibrin deposition by confocal microscopy); format: cell-based, human; conditions: static conditions; for fibrin deposition, mean fluorescence intensity: 4 hours
Experimental: (§2) Human endothelial cells were co-cultured with or without smooth muscle cells in the presence or absence of human-derived, region-specific hemodynamics. Endothelial cells were exposed to TNFα at various concentrations and incubated in human, platelet-free plasma supplemented by ALEXA FLUOR 488 (A488, a fluorescent dye)-labeled fibrinogen. Conversion of A488-fibrinogen to A488-fibrin and deposition on the endothelium was quantified by confocal microscopy.
For static monocultures of endothelial cells, endothelial cells were plated at 100,000 cells/cm^2 on coverslips and allowed to adhere for 24 hours. After 24 hours, media was exchanged with media containing 0 ng/ml, 1 ng/ml, 10 ng/ml, or 20 ng/ml TNFα. Cells were incubated for 4 hours at 37° C. Following incubation, media was removed and cells were washed twice with PBS. Cells were then incubated an additional 15 minutes at 37° C. with Human Platelet Free Plasma (PFP) supplemented with 37.5 μg/mL ALEXA-488 human fibrinogen, 20 μg/mL corn trypsin inhibitor, and 10 mM calcium. This protocol is depicted in FIG. 1A. After 15 minutes, the cells were fixed with 4% paraformaldehyde (PFA) and stained with 0.5 nM SYT083 (a fluorescent nucleic acid stain) in 10 mM Tris, 1 mM EDTA buffer for 45 minutes. Coverslips were mounted onto coverglass using FLUOROMOUNT-G (a mounting agent) and imaged.

[9] = test system: Tissue Factor Pathway Inhibitor (TFPI); assay: Expression of genes relevant to thrombosis in co-cultures under hemodynamic flow; format: cell-based, human; conditions: TNFα stimulation; both endothelial and smooth muscle cells
Description: FIG. 2B depicts a heat map of relative gene expression in endothelial and smooth muscle cells (grown under atheroprone or atheroprotective conditions; see FIG. 2A) of several genes relevant to thrombosis. The relative changes in gene expression of Tissue Factor (F3) and Thrombomodulin (THBD) are presented below the heat map. Atheroprone hemodynamics up-regulate Tissue Factor (F3) compared to atheroprotective shear stress. […] In addition, TNFα stimulation reduces Tissue Factor Pathway Inhibitor (TFPI) in both endothelial and smooth muscle cells.

endothelial cells [10] = assay: TNFα in hemodynamic environment: inflammatory gene expression; format: cell-based; conditions: 0.1-1 ng/ml TNFα, atheroprone hemodynamic forces; not seen at same levels in static
Experimental: Following 24 hours of shear stress preconditioning with atheroprotective or atheroprone hemodynamic forces, TNFα was added to upper volume (containing the endothelial cells) at a concentration of 0.05-1 ng/ml (see FIG. 5). This concentration of TNFα is similar to plasma concentrations of TNFα observed in patients with cardiovascular disease. Shear stress application was continued for an additional 24 hours in the presence of TNFα.

[11] = test system: Endothelial/smooth muscle cell co-cultures; assay: Coculture thrombosis assay with shear stress, Protocol A (fibrin deposition); format: cell-based, human
Experimental: as §2
Following 24 hours of shear stress application (atheroprone or atheroprotective), the media was supplemented with TNFα at a concentration of 0.05 ng/mL or 0.10 ng/mL and shear stress was continued for an additional 24 hours, as shown in FIG. 3A. Media was then removed from both the upper and lower chambers, and both the endothelial cells and smooth muscle cells are washed twice with PBS. Endothelial cells were then incubated for 15 minutes at 37° C. with PFP supplemented with 37.5 μg/mL ALEXA-488 human fibrinogen, 20 μg/mL corn trypsin inhibitor, and 10 mM calcium, and fixed and imaged as described above for monocultures.

[12] = atheroprone hemodynamic environment

Compound: Cc1ccc2cc3c(ccc4ccccc43)c3c2c1CC3 [3-MC, 3-Methyl Cholanthrene]
- fold lower levels giving induction responses under controlled hemodynamics (cytochrome p450 1A/1B; compared to static (1 μM static, 0.1 μM controlled hemodynamics)): 10 fold
- 1A/1B response to inducer (cytochrome p450 activity normalized to ATP) (cytochrome p450 1A/1B; controlled hemodynamics 0.6 dynes/cm^2, 3-MC 0.1 μM, 48 hours, day 7, DMSO 4.87): 133.06

- 3A response to inducer (cytochrome p450 activity normalized to ATP) (cytochrome p450 3A): 57.53
Compound: C[C@@H]1C[C@H]2[C@@H]3CCC4=CC(=O)C=C[C@]4(C)[C@@]3(F)[C@@H](O)C[C@]2(C)[C@@]1(O)C(=O)CO [Dexamethasone, dexamethasone]
- toxicity (primary rat hepatocytes): toxic

- total triglyceride content of hepatocytes (hepatocytes [1]): reduced
- expression of metabolic genes such as Cyp3A2 (hepatocytes [2]): restored
Compound: CCc1ccc(CCOc2ccc(CC3SC(=O)NC3=O)cc2)nc1 (stereo not drawn) [Pioglitazone, pioglitazone]

Compound: C[C@]12CCC(=O)C=C1CC[C@@H]1[C@@H]2[C@@H](O)C[C@]2(C=O)[C@@H](C(=O)CO)CC[C@@H]12 [aldosterone, Aldosterone]
- inflammatory genes (gene array) [3]: upregulated

Compound: Angiotensin II (DRVYIHPF; Angiotensin-2; UniProt P01019 25-32, looked up) [ANG2]
- inflammatory genes (gene array) [4]: upregulated

Compound: high-density lipoprotein [HDL]
- activation of pro-inflammatory genes and proteins [5]: blocking activation
- atheroprotective genes [5]: activates

Compound: oxidized low-density lipoprotein [oxLDL]
- atheroprotective signaling (eNOS and KLF2) gene expression ([6]; atheroprone conditions): reduced atheroprotective signaling
- HO-1 and ATF3 gene expression ([6]; atheroprone conditions compared to traditional static, oxLDL 10-50 μg/ml vs nLDL): activates these genes at much higher levels
- inflammatory genes IL8 and E-Selectin (SELE) expression ([6]; atheroprone conditions, not regulated in static cultures): activate
- VCAM-1 protein expression [6, 12]: elevated
- phosphorylation of eNOS [6, 12]: reduced phosphorylation
- secreted cytokines IL6, IL8 and MCP-1 [6, 12]: increased levels
- number of genes regulated as compared to nLDL ([6]; endothelial cells, 5 donors): 688 genes
- number of genes regulated as compared to nLDL ([6]; smooth muscle cells, 4 donors): 304 genes
- eNOS gene expression (NOS3) (endothelial cells [7]; 50 μg/ml oxLDL): reduced
- E-Selectin (SELE) gene expression (endothelial cells [7]; 50 μg/ml oxLDL vs nLDL control): higher levels
- NFκB activity (luciferase reporter) (NFκB; endothelial cells, atheroprone hemodynamics): further heightened
- NFκB signaling (luciferase reporter) (NFκB; smooth muscle cells, oxLDL added to upper volume only): elevated NFKB signaling

Compound: tumor necrosis factor-α [TNFα]
- fibrin deposition, mean fluorescence intensity (endothelial cells [8]; 1 ng/ml TNFα): 1.17e5
- fibrin deposition, mean fluorescence intensity (endothelial cells [8]; 10 ng/ml TNFα): 2.69e7
- fibrin deposition, mean fluorescence intensity (endothelial cells [8]; 20 ng/ml TNFα): 3.61e7
- TNFα concentration needed for activation relative to physiological levels (endothelial cells [8]): approximately 200 fold
- Tissue Factor Pathway Inhibitor (TFPI) expression [9]: reduces
- inflammatory response (E-Selectin, ICAM, VCAM, IL8 expression) (endothelial cells [10]): induced an inflammatory response
- fibrin deposition, mean fluorescence intensity ([11]; 0.05 ng/ml TNFα, 24 hours, atheroprone hemodynamics from internal carotid sinus, Protocol A): 1.9e7
- fold lower levels of TNFα inducing fibrin deposition as compared to static cultures ([11]; atheroprone hemodynamic priming): 100- to 200 fold
